Assay results as given in paper doi:10.1101/2023.03.24.534094v2 (biorxiv, 2023).
Read-outs that look alike come from different tables or passages of the source. One block for each molecule: values may come before it.

Columns and labels:
Assay in all cases: biochemical
MAPKAPK2 = MAPKAPK2 (Homo sapiens, UniProt P49137)
JNK1 = JNK1 (Homo sapiens, UniProt P45983)
GAK = biological target: T1, GAK (Homo sapiens, UniProt O14976)
T1 sequence (O14976 1-1311): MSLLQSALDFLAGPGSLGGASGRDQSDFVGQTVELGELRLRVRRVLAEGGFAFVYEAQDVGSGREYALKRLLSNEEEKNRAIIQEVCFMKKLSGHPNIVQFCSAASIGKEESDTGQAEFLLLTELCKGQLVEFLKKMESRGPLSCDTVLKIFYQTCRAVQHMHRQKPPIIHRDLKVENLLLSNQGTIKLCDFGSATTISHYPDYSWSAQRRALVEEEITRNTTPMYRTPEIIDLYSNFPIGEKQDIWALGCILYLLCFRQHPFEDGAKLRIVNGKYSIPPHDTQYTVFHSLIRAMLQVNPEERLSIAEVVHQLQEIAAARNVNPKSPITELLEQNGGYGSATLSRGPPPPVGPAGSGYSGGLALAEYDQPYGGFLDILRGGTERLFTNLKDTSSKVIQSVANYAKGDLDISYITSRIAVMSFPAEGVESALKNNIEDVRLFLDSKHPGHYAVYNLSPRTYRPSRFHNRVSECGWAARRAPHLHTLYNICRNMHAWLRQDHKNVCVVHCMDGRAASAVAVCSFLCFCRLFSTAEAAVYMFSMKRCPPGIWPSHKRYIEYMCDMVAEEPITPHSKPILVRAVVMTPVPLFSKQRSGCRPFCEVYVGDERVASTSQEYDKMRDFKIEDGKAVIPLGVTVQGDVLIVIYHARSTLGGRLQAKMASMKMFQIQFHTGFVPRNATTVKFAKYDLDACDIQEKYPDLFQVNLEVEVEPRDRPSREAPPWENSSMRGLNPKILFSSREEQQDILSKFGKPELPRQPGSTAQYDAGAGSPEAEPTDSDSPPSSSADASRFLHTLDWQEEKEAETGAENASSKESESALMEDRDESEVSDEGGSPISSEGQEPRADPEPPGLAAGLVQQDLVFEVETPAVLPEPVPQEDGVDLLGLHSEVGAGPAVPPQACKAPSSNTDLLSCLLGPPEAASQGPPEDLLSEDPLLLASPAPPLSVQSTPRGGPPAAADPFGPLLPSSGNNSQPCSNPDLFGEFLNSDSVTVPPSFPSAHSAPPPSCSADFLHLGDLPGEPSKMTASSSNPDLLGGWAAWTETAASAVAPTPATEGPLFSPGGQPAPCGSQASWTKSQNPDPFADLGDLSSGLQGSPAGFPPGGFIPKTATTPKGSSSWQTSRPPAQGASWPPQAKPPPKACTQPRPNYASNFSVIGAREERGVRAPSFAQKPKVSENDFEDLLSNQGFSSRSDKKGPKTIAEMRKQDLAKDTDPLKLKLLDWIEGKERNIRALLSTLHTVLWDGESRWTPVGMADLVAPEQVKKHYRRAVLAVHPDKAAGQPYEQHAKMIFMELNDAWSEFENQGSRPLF

PIM1 = PIM1 (Homo sapiens, UniProt P11309)
EpHA5 = EpHA5 (Homo sapiens, UniProt P54756)
MAP2K7 = biological target: T2, MAP2K7 (Homo sapiens, UniProt O14733)
T2 sequence (O14733 1-419): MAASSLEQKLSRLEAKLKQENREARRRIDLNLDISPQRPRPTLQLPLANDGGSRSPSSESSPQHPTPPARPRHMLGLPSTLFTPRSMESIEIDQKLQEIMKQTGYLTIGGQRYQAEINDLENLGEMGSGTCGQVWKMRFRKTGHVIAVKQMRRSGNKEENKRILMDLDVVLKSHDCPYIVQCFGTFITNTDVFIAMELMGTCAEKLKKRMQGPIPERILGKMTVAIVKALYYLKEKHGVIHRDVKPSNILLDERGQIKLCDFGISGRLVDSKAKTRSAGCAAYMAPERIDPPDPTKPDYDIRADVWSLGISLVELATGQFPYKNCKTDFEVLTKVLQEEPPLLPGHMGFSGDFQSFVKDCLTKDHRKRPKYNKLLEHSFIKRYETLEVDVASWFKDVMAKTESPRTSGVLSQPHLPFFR

CK1d = CK1d (Homo sapiens, UniProt P48730)
JNK3 = JNK3 (Homo sapiens, UniProt P53779)
JNK3, sequence (P53779 whole entry): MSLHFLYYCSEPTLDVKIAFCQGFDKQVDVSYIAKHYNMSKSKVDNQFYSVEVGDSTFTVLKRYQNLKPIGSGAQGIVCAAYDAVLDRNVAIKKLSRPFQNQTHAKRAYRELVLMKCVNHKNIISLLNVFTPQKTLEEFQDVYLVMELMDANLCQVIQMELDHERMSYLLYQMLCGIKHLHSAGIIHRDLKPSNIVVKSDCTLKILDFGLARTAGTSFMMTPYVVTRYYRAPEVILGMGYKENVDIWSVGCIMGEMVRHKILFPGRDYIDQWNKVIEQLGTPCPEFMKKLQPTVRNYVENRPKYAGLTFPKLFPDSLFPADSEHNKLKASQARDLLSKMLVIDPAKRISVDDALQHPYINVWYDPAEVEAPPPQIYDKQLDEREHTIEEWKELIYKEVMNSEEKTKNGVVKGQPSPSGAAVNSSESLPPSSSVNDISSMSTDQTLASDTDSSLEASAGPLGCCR

MAPKAPK2, sequence (P49137 whole entry): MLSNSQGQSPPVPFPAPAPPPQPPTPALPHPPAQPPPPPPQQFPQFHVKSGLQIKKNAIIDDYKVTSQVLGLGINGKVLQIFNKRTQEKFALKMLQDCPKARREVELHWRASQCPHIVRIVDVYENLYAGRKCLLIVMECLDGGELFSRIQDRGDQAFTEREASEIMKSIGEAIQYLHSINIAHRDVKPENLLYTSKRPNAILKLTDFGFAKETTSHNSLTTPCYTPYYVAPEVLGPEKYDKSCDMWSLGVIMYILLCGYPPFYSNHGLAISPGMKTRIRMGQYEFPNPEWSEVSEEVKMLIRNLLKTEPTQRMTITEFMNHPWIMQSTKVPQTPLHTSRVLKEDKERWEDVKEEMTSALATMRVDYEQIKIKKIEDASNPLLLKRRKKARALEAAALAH
JNK1, sequence (P45983 whole entry): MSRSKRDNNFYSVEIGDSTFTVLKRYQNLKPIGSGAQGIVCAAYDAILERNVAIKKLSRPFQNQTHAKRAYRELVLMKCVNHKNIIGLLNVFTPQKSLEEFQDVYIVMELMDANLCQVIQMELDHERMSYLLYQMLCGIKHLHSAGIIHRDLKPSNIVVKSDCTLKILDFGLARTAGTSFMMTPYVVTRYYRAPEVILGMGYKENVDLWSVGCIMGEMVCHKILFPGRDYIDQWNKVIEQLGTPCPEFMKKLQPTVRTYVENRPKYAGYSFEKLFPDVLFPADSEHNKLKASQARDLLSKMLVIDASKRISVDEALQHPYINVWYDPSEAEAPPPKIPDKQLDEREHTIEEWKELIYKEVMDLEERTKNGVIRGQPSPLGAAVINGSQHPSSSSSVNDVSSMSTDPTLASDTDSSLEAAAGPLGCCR
CK1d, sequence (P48730 whole entry): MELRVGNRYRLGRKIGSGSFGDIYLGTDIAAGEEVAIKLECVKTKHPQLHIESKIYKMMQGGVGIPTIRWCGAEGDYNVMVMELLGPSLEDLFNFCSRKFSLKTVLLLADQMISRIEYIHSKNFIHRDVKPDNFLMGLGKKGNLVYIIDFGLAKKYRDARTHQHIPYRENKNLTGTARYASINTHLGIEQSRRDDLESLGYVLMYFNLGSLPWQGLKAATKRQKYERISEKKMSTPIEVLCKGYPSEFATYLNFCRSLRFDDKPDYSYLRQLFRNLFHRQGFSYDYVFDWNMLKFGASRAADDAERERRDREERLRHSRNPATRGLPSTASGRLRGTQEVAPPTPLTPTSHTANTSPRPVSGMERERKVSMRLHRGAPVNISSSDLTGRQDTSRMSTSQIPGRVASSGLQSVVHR
PIM1, sequence (P11309 whole entry): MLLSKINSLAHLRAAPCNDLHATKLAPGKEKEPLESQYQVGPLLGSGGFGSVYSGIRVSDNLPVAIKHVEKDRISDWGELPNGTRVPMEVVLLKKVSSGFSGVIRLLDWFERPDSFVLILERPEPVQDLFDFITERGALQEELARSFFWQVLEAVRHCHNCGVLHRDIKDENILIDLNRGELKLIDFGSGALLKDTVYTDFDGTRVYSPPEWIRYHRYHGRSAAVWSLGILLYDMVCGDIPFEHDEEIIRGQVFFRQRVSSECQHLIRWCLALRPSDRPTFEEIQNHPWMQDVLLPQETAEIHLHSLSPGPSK
EpHA5, sequence (P54756 whole entry): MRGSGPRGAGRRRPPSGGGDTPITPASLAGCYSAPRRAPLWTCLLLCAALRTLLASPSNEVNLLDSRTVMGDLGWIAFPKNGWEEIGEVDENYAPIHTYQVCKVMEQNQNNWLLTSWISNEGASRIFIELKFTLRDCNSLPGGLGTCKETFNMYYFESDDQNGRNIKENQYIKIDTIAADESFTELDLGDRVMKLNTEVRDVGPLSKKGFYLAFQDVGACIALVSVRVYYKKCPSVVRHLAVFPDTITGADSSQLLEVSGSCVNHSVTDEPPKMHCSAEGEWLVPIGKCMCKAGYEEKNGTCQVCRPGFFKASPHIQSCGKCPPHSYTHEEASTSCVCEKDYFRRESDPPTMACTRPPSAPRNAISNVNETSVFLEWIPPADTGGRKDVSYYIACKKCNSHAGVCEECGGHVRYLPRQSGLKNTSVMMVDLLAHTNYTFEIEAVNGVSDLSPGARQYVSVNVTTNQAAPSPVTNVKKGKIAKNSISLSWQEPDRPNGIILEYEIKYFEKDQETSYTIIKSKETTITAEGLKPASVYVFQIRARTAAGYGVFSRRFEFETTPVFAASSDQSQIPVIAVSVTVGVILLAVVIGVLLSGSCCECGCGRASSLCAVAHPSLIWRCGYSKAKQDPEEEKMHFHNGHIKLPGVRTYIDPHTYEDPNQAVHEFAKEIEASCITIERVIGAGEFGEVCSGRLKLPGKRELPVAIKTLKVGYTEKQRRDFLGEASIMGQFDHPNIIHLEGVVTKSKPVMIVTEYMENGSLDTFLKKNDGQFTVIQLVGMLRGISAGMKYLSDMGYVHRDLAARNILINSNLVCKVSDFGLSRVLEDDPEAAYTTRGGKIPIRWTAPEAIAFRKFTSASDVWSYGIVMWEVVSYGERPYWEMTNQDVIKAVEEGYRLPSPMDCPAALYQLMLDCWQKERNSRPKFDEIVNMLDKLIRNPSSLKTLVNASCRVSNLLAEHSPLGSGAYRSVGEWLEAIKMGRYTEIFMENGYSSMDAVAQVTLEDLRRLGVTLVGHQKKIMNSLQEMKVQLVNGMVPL

ΔTm at 10 µM (MAPKAPK2; read-out: dTm 8): 0 °C
ΔTm at 10 µM (JNK1; read-out: dTm 8): 1.4 °C
ΔTm at 10 µM (GAK; read-out: dTm 8): 3.7 °C
ΔTm at 10 µM (PIM1; read-out: dTm 8): 0.8 °C
ΔTm at 10 µM (EpHA5; read-out: dTm 8): 5.4 °C
ΔTm at 10 µM (MAP2K7; read-out: dTm 8): 0.6 °C
ΔTm at 10 µM (CK1d; read-out: dTm 8): 0 °C
ΔTm at 10 µM (JNK3; read-out: dTm 8): 0.8 °C
SMILES: CNc1ncc2cc(-c3cc(Cl)ccc3Cl)c(=O)n(CCCCN)c2n1 [compound 8, 8-(4-Aminobutyl)-6-(2,5-dichlorophenyl)-2-(methylamino)pyrido[2,3-d]pyrimidin-7(8H)-one]

ΔTm at 10 µM (MAPKAPK2; read-out: dTm 10): 0 °C
ΔTm at 10 µM (JNK1; read-out: dTm 10): 0.8 °C
ΔTm at 10 µM (GAK; read-out: dTm 10): 3.3 °C
ΔTm at 10 µM (PIM1; read-out: dTm 10): 0.8 °C
ΔTm at 10 µM (EpHA5; read-out: dTm 10): 5.5 °C
ΔTm at 10 µM (MAP2K7; read-out: dTm 10): 0.4 °C
ΔTm at 10 µM (CK1d; read-out: dTm 10): 0 °C
ΔTm at 10 µM (JNK3; read-out: dTm 10): 1.3 °C
SMILES: CNc1ncc2cc(-c3cc(Cl)ccc3Br)c(=O)n(CCCCN)c2n1 [compound 10, 8-(4-Aminobutyl)-6-(2-bromo-5-chlorophenyl)-2-(methylamino)pyrido[2,3-d]pyrimidin-7(8H)-one]

The remaining lines, values behind:

SMILES: CNc1ncc2cc(-c3cc(C(F)(F)F)ccc3Cl)c(=O)n(CCCCN)c2n1 [compound 9, 8-(4-Aminobutyl)-6-(2-chloro-5-(trifluoromethyl)phenyl)-2-(methylamino)pyrido[2,3-d]pyrimidin-7(8H)-one]
ΔTm at 10 µM (MAPKAPK2; read-out: dTm 9): -0.1 °C
ΔTm at 10 µM (JNK1; read-out: dTm 9): 0.6 °C
ΔTm at 10 µM (GAK; read-out: dTm 9): 1 °C
ΔTm at 10 µM (PIM1; read-out: dTm 9): 0.6 °C
ΔTm at 10 µM (EpHA5; read-out: dTm 9): 2.6 °C
ΔTm at 10 µM (MAP2K7; read-out: dTm 9): 0.4 °C
ΔTm at 10 µM (CK1d; read-out: dTm 9): 0 °C
ΔTm at 10 µM (JNK3; read-out: dTm 9): 1.3 °C

SMILES: CNc1ncc2cc(-c3cc(Br)ccc3Br)c(=O)n(CCCCN)c2n1 [compound 11, 8-(4-Aminobutyl)-6-(2,5-dibromophenyl)-2-(methylamino)pyrido[2,3-d]pyrimidin-7(8H)-one]
ΔTm at 10 µM (MAPKAPK2; read-out: dTm 11): 0 °C
ΔTm at 10 µM (JNK1; read-out: dTm 11): 0.9 °C
ΔTm at 10 µM (GAK; read-out: dTm 11): 3.3 °C
ΔTm at 10 µM (PIM1; read-out: dTm 11): 0.6 °C
ΔTm at 10 µM (EpHA5; read-out: dTm 11): 4.7 °C
ΔTm at 10 µM (MAP2K7; read-out: dTm 11): 0.5 °C
ΔTm at 10 µM (CK1d; read-out: dTm 11): 0 °C
ΔTm at 10 µM (JNK3; read-out: dTm 11): 1.1 °C

SMILES: CNc1ncc2cc(-c3cc(F)c(-c4cccc(C)n4)cc3F)c(=O)n(CCCCN)c2n1 [compound 12, 8-(4-Aminobutyl)-6-(2,5-difluoro-4-(6-methylpyridin-2-yl)phenyl)-2-(methylamino)pyrido[2,3-d]pyrimidin-7(8H)-one]
ΔTm at 10 µM (MAPKAPK2; read-out: dTm 12): -0.3 °C
ΔTm at 10 µM (JNK1; read-out: dTm 12): 0.7 °C
ΔTm at 10 µM (GAK; read-out: dTm 12): 7.6 °C
ΔTm at 10 µM (PIM1; read-out: dTm 12): 0.8 °C
ΔTm at 10 µM (EpHA5; read-out: dTm 12): 3.2 °C
ΔTm at 10 µM (MAP2K7; read-out: dTm 12): 1.7 °C
ΔTm at 10 µM (CK1d; read-out: dTm 12): 0.6 °C
ΔTm at 10 µM (JNK3; read-out: dTm 12): 0.4 °C
